In US20060122260A1, “Intermediates for aromatic polyketides as selective anticancer and antiviral agents” (priority 2002, published 2006):
Values after ≈ are worked out from the molar mass of the structure shown. “Also recorded” adds a separate entry of the source.

Legend:
RS virus = experiment: Activity testing in human virus models: RS virus; assay type: cell-based; details: for activity against virus: RS virus, concentrations tested 1 μM and 100 μM; for inhibition at 1 µM / inhibition at 100 µM: human respiratory syncytial virus, RSV
Procedure: (§1) The results obtained from the parvovirus model encouraged us to carry out the bioactivity tests using human viruses as targets. Selected RNA- and DNA-viruses were tested; herpes simplex (HSV), adenovirus, influenza B, RS virus, cytomegalovirus (CMV), and CBV5 virus. […] The concentrations tested were 1 μM and 100 μM. The cytotoxic effect was not found using 1 μM of S2502 or S2507. Instead, 100 μM of S2502 was toxic to the cells used for CBV5 and HSV infection, and 100 μM of S2507 was toxic to the cells used for HSV infection.
(§2) S2507 and S2502 were further tested in human virus models: herpes simplex (HSV), adenovirus, influenza B, RS virus, cytomegalovirus and CBV5 virus. […] The compounds were active when administered simultaneously or before an infection (prophylactic) and half an hour after the infection. […] However, in HSV 100 μM concentration was toxic.

MES-SA/Dx5 = experiment: Typical cytotoxicity screen, MES-SA/Dx5
[1] = test system: control cultivations without virus; experiment: Cytotoxic effect on cells in the human virus tests (control cultivations without virus); details: for cytotoxic effect: 1 μM; for tolerance of control cultivations without virus: utilized drug concentrations (100 and 1 μM)
mice = experiment: In vivo toxicity, preliminary dose range finding study; details: single i.p. 100, 50, 25, 12.5 and 6.25 mg/kg, two weeks
Procedure: The drug was injected once i.p. at doses 100, 50, 25, 12.5 and 6.25 mg/kg to two mice at each dose level. The mice were observed daily and weighed every 3 to 5 days for two weeks.

cytomegalovirus (CMV) = experiment: Activity testing in human virus models: cytomegalovirus; assay type: cell-based; details: for activity against virus: CMV, concentrations tested 1 μM and 100 μM; for inhibition at 1 µM / inhibition at 100 µM: Human betaherpesvirus 5, Cytomegalo
Procedure: as §1, §2

[2] = test system: Canine parvovirus type 2 (CPV-d); experiment: Parvovirus infectivity screening (animal virus model); assay type: cell-based; details: for antiviral activity against parvovirus (inhibition of infection of cells): drug added simultaneously with CPV, 24 h p.i.
CBV5 virus = experiment: Activity testing in human virus models: CBV5; assay type: cell-based; details: for inhibition at 1 µM: CBV5, 1 μM; for activity against virus: CBV5 virus, concentrations tested 1 μM and 100 μM
Procedure: as §1, §2

[3] = test system: cells used for HSV infection; experiment: Toxicity to cells used for HSV infection; assay type: cell-based; details: 100 μM
Procedure: as §1, §2

Stability = assay type: physicochemical; details: for stability in purification process and bioassays: typical conditions used in the purification process and in bioassays
Excerpt: It is the methyl ester of the S2507 acid.

pKa = assay type: physicochemical; details: comparable to acetic acid
adenovirus = experiment: Activity testing in human virus models: adenovirus; assay type: cell-based; details: for activity against virus: adenovirus, concentrations tested 1 μM and 100 μM; for inhibition at 1 µM / inhibition at 100 µM: unidentified adenovirus, Adeno
Procedure: as §1, §2

uninfected cells = experiment: Cytotoxicity in the parvovirus model; details: for effect on uninfected cells: parvovirus model
MES-SA = experiment: Typical cytotoxicity screen, MES-SA
influenza B = experiment: Activity testing in human virus models: influenza B; assay type: cell-based; details: for inhibition at 1 µM / inhibition at 100 µM: Influenza B virus, Influenza B; for activity against virus: influenza B, concentrations tested 1 μM and 100 μM
[4] = test system: melanoma cell lines (MAL-ME-3M, M14, SK-MEL-5); experiment: NCI 60-cell line panel, melanoma cell lines; assay type: cell-based, human; details: some melanoma cell lines
Excerpt: National Cancer Institute (NCI) tested both of the compounds in their 60-cell line panel (copy of their report available). NCI uses a 48-hour continuous drug exposure protocol. Cell viability and growth are estimated using a sulforhodamine B (SRB) protein assay. The screen is described on the web site: http://dtp.nci.nih.gov. […] However, a mean value of ED50 is at micro molar range against some melanoma cell lines (MAL-ME-3M, M14, SK-MEL-5).

herpes simplex (HSV) = experiment: Activity testing in human virus models: HSV; assay type: cell-based, herpes simplex virus; details: for activity against virus: HSV, concentrations tested 1 μM and 100 μM; for inhibition % 100 μM / inhibition at 1 µM: Herpes (HSV); for inhibition at 1 µM: Homo sapiens
Procedure: as §1, §2

[5] = target: T1, human topoisomerase II (p170 form) (Homo sapiens, UniProt P11388); experiment: Topoisomerase II drug screening kit; assay type: biochemical
T1 construct: purchased TopoGEN, Inc, Columbus, Ohio
Procedure: (§3) In order to understand the mechanism of anticancer activity, the inhibition of topoisomerases by S2502 was studied. The topoisomerase assays were done using Topoisomerase I and II drug screening kits with human topoisomerase I and II (p170 form) enzymes, respectively, according to the manufacturer's (TopoGEN, Inc, Columbus, Ohio) instructions. […] Minimal inhibitory concentrations were 25 μM against Topoisomerase 1 and 50 μM against Topoisomerase II.

[6] = test system: cells used for CBV5 infection; experiment: Toxicity to cells used for CBV5 infection; assay type: cell-based; details: 100 μM
Procedure: as §1

human topoisomerase I = target: T2, human topoisomerase I (Homo sapiens, UniProt P11387); experiment: Topoisomerase I drug screening kit; assay type: biochemical
T2 construct: purchased TopoGEN, Inc, Columbus, Ohio
T2 sequence (P11387 1-765): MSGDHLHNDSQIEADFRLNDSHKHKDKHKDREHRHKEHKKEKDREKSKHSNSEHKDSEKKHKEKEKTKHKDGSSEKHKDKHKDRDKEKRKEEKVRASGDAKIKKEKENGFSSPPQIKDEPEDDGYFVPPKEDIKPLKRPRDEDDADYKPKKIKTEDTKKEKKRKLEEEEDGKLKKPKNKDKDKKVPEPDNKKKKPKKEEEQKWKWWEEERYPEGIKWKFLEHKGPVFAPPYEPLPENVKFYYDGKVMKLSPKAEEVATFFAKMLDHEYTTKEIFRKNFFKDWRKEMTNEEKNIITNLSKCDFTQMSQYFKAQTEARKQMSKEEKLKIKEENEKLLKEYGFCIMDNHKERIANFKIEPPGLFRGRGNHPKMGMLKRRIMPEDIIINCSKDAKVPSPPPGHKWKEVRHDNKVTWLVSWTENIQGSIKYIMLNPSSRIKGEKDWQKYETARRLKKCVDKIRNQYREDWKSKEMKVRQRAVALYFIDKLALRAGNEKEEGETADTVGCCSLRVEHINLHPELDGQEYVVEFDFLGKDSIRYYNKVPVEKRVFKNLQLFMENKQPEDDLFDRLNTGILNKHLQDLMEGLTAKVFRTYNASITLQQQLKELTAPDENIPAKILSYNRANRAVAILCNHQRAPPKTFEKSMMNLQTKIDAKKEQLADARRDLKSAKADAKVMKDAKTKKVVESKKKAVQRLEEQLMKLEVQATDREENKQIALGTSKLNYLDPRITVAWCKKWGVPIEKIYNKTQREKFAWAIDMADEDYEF
Procedure: as §3

T1 sequence (P11388 whole entry): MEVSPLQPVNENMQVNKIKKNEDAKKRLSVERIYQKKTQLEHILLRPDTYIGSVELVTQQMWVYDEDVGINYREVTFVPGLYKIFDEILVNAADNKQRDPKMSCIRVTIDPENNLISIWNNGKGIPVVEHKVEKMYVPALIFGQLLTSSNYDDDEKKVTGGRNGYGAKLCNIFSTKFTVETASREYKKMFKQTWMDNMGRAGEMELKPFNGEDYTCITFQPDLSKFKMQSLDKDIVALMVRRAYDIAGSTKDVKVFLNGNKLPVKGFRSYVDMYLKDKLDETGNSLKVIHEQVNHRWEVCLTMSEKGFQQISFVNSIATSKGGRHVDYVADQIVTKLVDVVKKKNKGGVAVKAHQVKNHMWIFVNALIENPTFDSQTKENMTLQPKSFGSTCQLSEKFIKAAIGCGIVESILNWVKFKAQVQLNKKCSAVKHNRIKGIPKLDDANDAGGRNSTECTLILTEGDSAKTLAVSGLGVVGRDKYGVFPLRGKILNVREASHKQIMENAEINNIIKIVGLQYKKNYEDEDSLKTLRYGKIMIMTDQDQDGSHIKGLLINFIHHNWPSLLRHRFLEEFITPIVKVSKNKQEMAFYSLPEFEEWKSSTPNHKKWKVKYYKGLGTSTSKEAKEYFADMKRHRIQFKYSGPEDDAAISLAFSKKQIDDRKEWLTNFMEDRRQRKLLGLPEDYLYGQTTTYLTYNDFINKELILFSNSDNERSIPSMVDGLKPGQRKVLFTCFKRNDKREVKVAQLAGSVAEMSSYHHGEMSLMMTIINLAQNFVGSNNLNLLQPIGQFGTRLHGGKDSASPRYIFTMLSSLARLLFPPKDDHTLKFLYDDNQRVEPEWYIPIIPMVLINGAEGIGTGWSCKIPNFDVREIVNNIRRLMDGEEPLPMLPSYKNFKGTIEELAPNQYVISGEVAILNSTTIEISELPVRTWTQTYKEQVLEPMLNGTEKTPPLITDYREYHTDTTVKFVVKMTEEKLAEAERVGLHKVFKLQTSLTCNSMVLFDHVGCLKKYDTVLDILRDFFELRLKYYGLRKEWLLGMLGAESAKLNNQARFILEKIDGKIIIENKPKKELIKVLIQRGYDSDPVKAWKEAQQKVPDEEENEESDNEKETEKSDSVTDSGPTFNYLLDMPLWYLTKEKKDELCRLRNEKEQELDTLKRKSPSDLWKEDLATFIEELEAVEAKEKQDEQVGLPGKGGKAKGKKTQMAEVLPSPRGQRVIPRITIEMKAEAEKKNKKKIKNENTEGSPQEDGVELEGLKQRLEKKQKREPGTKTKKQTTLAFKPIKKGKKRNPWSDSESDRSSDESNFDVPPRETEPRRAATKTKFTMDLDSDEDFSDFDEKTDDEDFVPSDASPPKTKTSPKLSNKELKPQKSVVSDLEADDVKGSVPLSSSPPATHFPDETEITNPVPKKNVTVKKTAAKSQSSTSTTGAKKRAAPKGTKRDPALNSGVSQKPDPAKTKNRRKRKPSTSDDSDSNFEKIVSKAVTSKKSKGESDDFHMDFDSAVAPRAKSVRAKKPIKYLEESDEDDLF

Structure (SMILES) | activity against virus (RS virus) | inhibition at 1 µM (RS virus) [%] | inhibition at 100 µM (RS virus) [%] | anticancer activity (cytotoxicity screen) (MES-SA/Dx5) | cytotoxic effect [1] | tolerance of control cultivations without virus [1] | activity against virus (cytomegalovirus (CMV)) | inhibition at 1 µM (cytomegalovirus (CMV)) [%] | inhibition at 100 µM (cytomegalovirus (CMV)) [%] | antiviral activity against parvovirus (inhibition of infection of cells) [2] | solubility to water at pH 7 | inhibition at 1 µM (CBV5 virus) [%] | activity against virus (CBV5 virus) | toxicity to cells [3] | stability under normal laboratory conditions (Stability) | stability in purification process and bioassays (Stability) | activity against virus (adenovirus) | inhibition at 1 µM (adenovirus) [%] | inhibition at 100 µM (adenovirus) [%] | effect on uninfected cells (uninfected cells) | also measured
CC(=O)/C=C1/C=C2OC(CC(=O)O)Cc3cc4cccc(O)c4c(c32)O1 (stereo not drawn) [S2507] | active | 100 | 100 | fail to show anticancer activity | not found | tolerated well | only S2502 was active against CMV | 0 | 0 | remarkable antiviral activity; also recorded: partially inhibit the infection | slightly soluble | 100 | active | toxic | stable and non-reactive | stable | active | 90 | 100 | without disturbing the uninfected cells | effect on the weight of the mice (mice): no effect; outer signs of general illness (mice): no outer signs of general illness were noticed; effect on parvovirus over concentration range ([2]; 5 nM to 500 nM): dose-activity correlation; inhibition at 100 µM (CBV5 virus; CBV5, 100 μM): 100%; pKa (pKa): ~4.6; cytotoxic properties (uninfected cells; highest concentration studied, 500 nM): did not exhibit cytotoxic properties; anticancer activity (cytotoxicity screen) (MES-SA): fail to show anticancer activity; inhibition at 1 µM (influenza B): 100%; inhibition at 100 µM (influenza B): 100%; activity against virus (influenza B): active; activity against melanoma cell lines [4]: active against some melanoma cell lines; activity against virus (herpes simplex (HSV)): active; inhibition % 100 μM (herpes simplex (HSV)): toxic; inhibition at 1 µM (herpes simplex (HSV)): 100%
COC(=O)CC1Cc2cc3cccc(O)c3c3c2C(=C/C(=C/C(C)=O)O3)O1 (stereo not drawn) [S2502] | active | 100 | 100 | fail to show anticancer activity | not found | tolerated well | active | 100 | 100 | remarkable antiviral activity; also recorded: partially inhibit the infection | not soluble | 100 | active | toxic | stable and non-reactive | stable | active | 90 | 100 | without disturbing the uninfected cells | Minimal inhibitory concentration [5]: 50 µM (≈ 18.3 µg/mL); inhibition % 100 μM (CBV5 virus; CBV5, 100 μM): toxic; toxicity to cells [6]: toxic; Minimal inhibitory concentration (human topoisomerase I): 25 µM (≈ 9.16 µg/mL); anticancer activity (cytotoxicity screen) (MES-SA): fail to show anticancer activity; inhibition at 1 µM (influenza B): 100%; inhibition at 100 µM (influenza B): 100%; activity against virus (influenza B): active; activity against melanoma cell lines [4]: active against some melanoma cell lines; activity against virus (herpes simplex (HSV)): active; inhibition % 100 μM (herpes simplex (HSV)): toxic; inhibition at 1 µM (herpes simplex (HSV)): 100%
